Assay results as given in patent publication US5424303A, “Substituted aminophosphonate derivatives, process for their preparation and pharmaceutical compositions containing them” (Symphar SA, priority 1992, dated 1995).

Legend:
plasma cholesterol = assay: Hypocholesterolemic activity, plasma cholesterol in mice fed test compound in diet; type: in vivo, OF1 strain mice; details: for change in vivo at 180 mg/kg/day: Mus musculus, feed or water, 240 h, read-out: Plasma Cholesterol (% Control), 0.1% compound in food, 10 days, ca. 180 mg/kg daily, mouse; for decrease plasma cholesterol by: 0.1% in food; for plasma cholesterol values as compared to control: same experimental conditions, reference drugs
Description: A. Hypocholesterolemic activity
Mouse fed a normal diet is a convenient model which was proposed by several authors (P. Olivier et al, Atherosclerosis 70, 107-114, 1988) ,for the screening for hypocholesterolemic drugs. OF1 strain mice (Iffa Credo) weighing between 25 and 35 g were divided into 5 groups of 5 animals each, four groups received the test compounds and the fifth group served as control. The test compounds were dissolved in diethyl ether. The ether solution was added to food to obtain a final concentration of 0.1%. compound in food. Ether was then evaporated at room temperature. The animals were fed for 10 days, the dally food intake corresponds to ca. 180 mg/kg. After an overnight fast, they were sacrificed by decapitation under ether anesthesia. Blood samples were collected using EDTA as anticoagulant.
Plasma cholesterol was measured by an enzymatic test (DIAMED, Morat, Switzerland). The mean values of each group receiving the test or reference compounds were expressed as percent of mean value of the contemporary control.

[1] = tested on: lipid peroxidation (rat liver homogenate); assay: Antioxidant activity, inhibition of iron induced lipid peroxidation in liver homogenate; type: biochemical, Wistar rat; details: FeSO4, 37° C., 2 h; <25 μM where IC50 was not determined
Description: The liver of a Wistar rat anesthetized with ether was collected and homogenized in 4 volumes of phosphate buffer (+4° C., pH 7.4) by means of a Potter. After centrifugation at 2000 rpm for 10 min the supernatant obtained was kept at +4° C. Lipid peroxidation was carried out in presence of FeSOhd according to the method described by A. T. Quitaniha et at, Ann.
The mixture contained 1.7 ml phosphate buffer, 0.2 ml homogenate and 0.1 ml of a 2 mM FeSO4 solution. The test compounds were added in a volume of 61 μl of ethanol or DMSO. Oxydation was carried out at 37° C. for 2 h and was stopped by the addition of 20 μl of 2% ethanolic solution of BHT.

Structure (SMILES)	change in vivo at 180 mg/kg/day (plasma cholesterol) [%]	IC50 [1] [µM]	also measured
CCCOP(=O)(OCCC)C(c1cc(C(C)(C)C)c(O)c(C(C)(C)C)c1)N(CCCc1ccccc1)C(C)=O (stereo not shown) [Compound 61]	-43	< 25	decrease plasma cholesterol by (plasma cholesterol; mouse, 10 days): more than 30%
CCOP(=O)(OCC)C(NC(Cc1ccccc1)c1ccccc1)c1cc(C(C)(C)C)c(O)c(C(C)(C)C)c1 (stereo not shown) [Compound 33]	-14	< 25	–
CCOP(=O)(OCC)C(NCCCc1ccccc1)c1ccc2c(c1)OCO2 (stereo not drawn) [Compound 80, Diethyl α-(3,4t-methylenedioxyphenyl)-N-(3-phenylpropyl)-aminomethylphosphonate]	-29	> 25	–
CCOP(=O)(OCC)C(Nc1ccc(OC)cc1)c1cc(C(C)(C)C)c(O)c(C(C)(C)C)c1 (stereo not drawn) [Compound 7, Diethyl α-(3,5-di-tert-butyl-4-hydroxyphenyl)-N-(4-methoxyphenyl)-aminomethylphosphonate]	-47	< 25	decrease plasma cholesterol by (plasma cholesterol; mouse, 10 days): more than 30%
CCOP(=O)(OCC)C(NCCCCc1ccccc1)c1cc(C(C)(C)C)c(O)c(C(C)(C)C)c1 (stereo not drawn) [Compound 27, Diethyl α-(3 ,5-di-tert-butyl-4-hydroxyphenyl)-N-(4-phenylbutyl)-aminomethylphosphonate]	-43	2.1	decrease plasma cholesterol by (plasma cholesterol; mouse, 10 days): more than 30%
CCOP(=O)(OCC)C(c1cc(C(C)(C)C)c(O)c(C(C)(C)C)c1)N(C)Cc1cccnc1 (stereo not drawn) [Compound 49, Diethyl α-(3.,5-di-tert-butyl-4-hydroxyphenyl)-N-methyl-N-(3-picolyl)aminomethylphosphonate]	-19	12.8	–
CCOP(=O)(OCC)C(NCCCc1ccccc1)c1ccc(O)c(O)c1 (stereo not shown) [Compound 78]	-5	< 25	–
CCOP(=O)(OCC)C(Nc1ccc2c(c1)CCC2)c1cc(C(C)(C)C)c(O)c(C(C)(C)C)c1 (stereo not shown) [Compound 47]	-2	2.7	–
CCOP(=O)(OCC)C(NC1CCN(Cc2ccccc2)CC1)c1cc(C(C)(C)C)c(O)c(C(C)(C)C)c1 (stereo not shown) [Compound 36]	-6	< 25	–
CCOC(=O)C(C)(C)Oc1ccc(Cl)cc1 [Clofibrate, reference compound]	–	–	plasma cholesterol values as compared to control (plasma cholesterol; mouse): +4%
CCOP(=O)(OCC)C(NC1CC(C)(C)NC(C)(C)C1)c1cc(C(C)(C)C)c(O)c(C(C)(C)C)c1 (stereo not shown) [Compound 35]	-17	> 25	–
CCOP(=O)(OCC)C(Nc1ccc2c(c1)Cc1ccccc1-2)c1cc(C(C)(C)C)c(O)c(C(C)(C)C)c1 (stereo not shown) [Compound 48]	3	< 25	–
CCOP(=O)(OCC)C(NC(C)CCc1ccccc1)c1cc(C(C)(C)C)c(O)c(C(C)(C)C)c1 (stereo not shown) [Compound 30]	-12	15.6	–
CC(C)OC(=O)C(C)(C)Oc1ccc(C(=O)c2ccc(Cl)cc2)cc1 [Fenofibrate, reference compound]	–	–	plasma cholesterol values as compared to control (plasma cholesterol; mouse): -26%
COP(=O)(OC)C(NCCc1ccc(Cl)cc1)c1cc(C(C)(C)C)c(O)c(C(C)(C)C)c1 (stereo not shown) [Compound 16]	-28	4.9	–
CCOP(=O)(OCC)C(NC1CCc2ccccc21)c1cc(C(C)(C)C)c(O)c(C(C)(C)C)c1 (stereo not shown) [Compound 46]	-8	3.8	–
CCOP(=O)(OCC)C(Nc1nc2ccccc2s1)c1cc(C(C)(C)C)c(O)c(C(C)(C)C)c1 (stereo not drawn) [Compound 44, Diethyl α-(3.5-di-tert-butyl-4-hydroxyphenyl)-N-(2-benzothiazolyl)-aminomethylphosphonate]	-17	< 25	–
CCOP(=O)(OCC)C(NCc1ccc(OC)c(OC)c1)c1cc(C(C)(C)C)c(O)c(C(C)(C)C)c1 (stereo not shown) [Compound 39]	-4	4.9	–
CCOP(=O)(OCC)C(NCCCc1ccccc1)c1cc(C(C)(C)C)c(O)c(C(C)(C)C)c1 (stereo not drawn) [Compound 22, Diethyl α-(3,5-di-tert-butyl-4-hydroxyphenyl)-N-(3-phenytpropyl)aminomethylphosphonate]	–	4	Plasma Cholesterol (% Control) (plasma cholesterol; 0.1% compound in food, 10 days, ca. 180 mg/kg daily, mouse): -53 % Control; decrease plasma cholesterol by (plasma cholesterol; mouse, 10 days): more than 30%
CCOP(=O)(OCC)C(NCCN1CCCCC1)c1cc(C(C)(C)C)c(O)c(C(C)(C)C)c1 (stereo not shown) [Compound 34]	-5	–	–
CCOP(=O)(OCC)C(NC(=O)OCc1ccccc1)c1cc(C(C)(C)C)c(O)c(C(C)(C)C)c1 (stereo not drawn) [Compound 85, Diethyl α-(3,5-di-tert-butyl-4-hydroxyphenyl)-N-benzyloxycarbonyl-aminomethylphosphonate]	0	–	–
CCOP(=O)(OCC)C(NCCCc1ccccc1)c1cc(C(C)(C)C)c(OC)c(C(C)(C)C)c1 (stereo not drawn) [Compound 67, Diethyl α-(3.5-di-tert-butyl-4-methoxyphenyl)-N-(3-phenylpropyl)-aminomethylphosphonate]	-22	> 25	–

Structure (SMILES)	change in vivo at 180 mg/kg/day (plasma cholesterol) [%]	IC50 [1] [µM]	also measured
CCOP(=O)(OCC)C(NCCCc1ccccc1)c1ccc(O)c([N+](=O)[O-])c1 (stereo not shown) [Compound 77]	-3	> 25	–
CCOP(=O)(OCC)C(NCCc1cccn1C)c1cc(C(C)(C)C)c(O)c(C(C)(C)C)c1 (stereo not shown) [Compound 37]	12	4	–
CCCCOc1ccc(C(NCCc2ccccc2)P(=O)(OCC)OCC)cc1 (stereo not shown) [Compound 69]	2	–	–
CCOP(=O)(OCC)C(Nc1ccc(N2C(=O)c3ccc(Cl)cc3C2=O)c(C)c1)c1cc(C(C)(C)C)c(O)c(C(C)(C)C)c1 (stereo not shown) [Compound 11]	–	2.7	–
CCOP(=O)(OCC)C(c1cc(C(C)(C)C)c(O)c(C(C)(C)C)c1)N(Cc1ccccc1)C(=O)C(F)(F)F (stereo not shown) [Compound 52]	–	< 25	–
CCOP(=O)(OCC)C(c1cc(C(C)(C)C)c(O)c(C(C)(C)C)c1)N(CCOc1ccccc1)C(=O)C(F)(F)F (stereo not shown) [Compound 57]	–	< 25	–
CCOP(=O)(OCC)C(Nc1cccc(C)c1)c1cc(C(C)(C)C)c(O)c(C(C)(C)C)c1 (stereo not shown) [Compound 8]	–	< 25	–
CCOP(=O)(OCC)C(c1cc(C(C)(C)C)c(O)c(C(C)(C)C)c1)N(Cc1ccccc1)C(C)=O (stereo not shown) [Compound 51]	–	< 25	–
CCOP(=O)(OCC)C(c1cc(C(C)(C)C)c(O)c(C(C)(C)C)c1)N(CCCCc1ccccc1)C(=O)C(F)(F)F (stereo not shown) [Compound 66]	–	< 25	–
CCOP(=O)(OCC)C(NCc1ccncc1)c1cc(C(C)(C)C)c(O)c(C(C)(C)C)c1 (stereo not shown) [Compound 86]	-15	–	–
CCOP(=O)(OCC)C(NCc1cc(C(C)(C)C)c(O)c(C(C)(C)C)c1)c1cc(C(C)(C)C)c(O)c(C(C)(C)C)c1 (stereo not drawn) [Compound 40, Diethyl α-(3,5-di-tert-butyl-4-hydroxyphenyl)-N-(3,5-di-tert-butyl-4-hydroxybenzyl)-aminomethylphosphonate]	-25	–	–
CCOP(=O)(OCC)C(c1cc(C(C)(C)C)c(O)c(C(C)(C)C)c1)N(CCc1ccccc1)C(=O)C(F)(F)F (stereo not shown) [Compound 54]	–	< 25	–
CCCCOP(=O)(OCCCC)C(c1cc(C(C)(C)C)c(O)c(C(C)(C)C)c1)N(CCc1ccc(Cl)cc1)C(=O)C(F)(F)F (stereo not shown) [Compound 55]	–	> 25	–
CCOP(=O)(OCC)C(c1cc(C(C)(C)C)c(O)c(C(C)(C)C)c1)N(CCc1ccccc1)C(C)=O (stereo not shown) [Compound 53]	–	< 25	–
CCOP(=O)(OCC)C(N)c1cc(C(C)(C)C)c(O)c(C(C)(C)C)c1 (stereo not drawn) [Compound 83, Diethyl α-(3,5-di-tert-butyl4-hydroxyphenyl)-aminomethyl-phosphonate]	4	–	–
CCOP(=O)(OCC)C(NC1COC(C)(C)OC1c1ccccc1)c1cc(C(C)(C)C)c(O)c(C(C)(C)C)c1 (stereo not shown) [Compound 91]	-18	–	–
CCCCCc1ccc(N(C(=O)C(F)(F)F)C(c2cc(C(C)(C)C)c(O)c(C(C)(C)C)c2)P(=O)(OCC)OCC)cc1 (stereo not shown) [Compound 58]	–	< 25	–
CCOP(=O)(OCC)C(c1cc(C(C)(C)C)c(O)c(C(C)(C)C)c1)N(CCCc1ccccc1)C(=O)C(F)(F)F (stereo not drawn) [Compound 64, Diethyl α-(3,5-di-tert-butyl-4-hydroxyphenyl)-N-trifluoroacetyl-N-(3-phenylpropyl)-aminomethylphosphonate]	–	< 25	–
CCOP(=O)(OCC)C(c1cc(C(C)(C)C)c(O)c(C(C)(C)C)c1)N(C(=O)C(F)(F)F)C(Cc1ccccc1)c1ccccc1 (stereo not shown) [Compound 56]	–	< 25	–
C=CCNC(c1cc(C(C)(C)C)c(O)c(C(C)(C)C)c1)P(=O)(OCC)OCC (stereo not drawn) [Compound 84, Diethyl α-(3,5-di-tert-butyl-4-hydroxyphenyl)-N-allyl-aminomethylphosphonate]	-19	–	–
Cc1ccc(C)c(OCCCC(C)(C)C(=O)O)c1 [Gemfibrozil, reference compound]	–	–	plasma cholesterol values as compared to control (plasma cholesterol; mouse): -7%
